Experimental data taken from ChEMBL document CHEMBL1127252, “Anti-solid tumor efficacy and preparation of N-[[1-[[2-(diethylamino)ethyl]amino]-9-oxo-9H-thioxanthen-4-yl]methyl]methanesulfonamide (win 33377) and related derivatives” (1994).

What was measured:
Format in all cases: functional
Mus musculus [1] = species: Mus musculus; experiment: Log cell kill of tumor (indicating the tumor growth delay) in mice.
Mus musculus [2] = species: Mus musculus; experiment: Survival (Long Term Cure) of tumor inoculated mice after 100 days.
Mus musculus [3] = species: Mus musculus; experiment: Percent tumor growth inhibition in mice.
Mus musculus [4] = experiment: The maximum tolerated total dose following i.v. administration in mice.
Mus musculus [5] = experiment: Maximum tolerated total dose (MTD) was determined after intravenous administration in mice

Compound	LCK (Mus musculus [1])	LTC (Mus musculus [2])	T/C (Mus musculus [3])	MTD (Mus musculus [4])	MTD (Mus musculus [5])
CCN(CC)CCNc1ccc(CNS(C)(=O)=O)c2sc3ccc(O)cc3c(=O)c12	3.7	0	11%	47 mg/kg	–
CCN(CC)CCNc1ccc(CNC)c2sc3ccccc3c(=O)c12	3.1	1	0%	800 mg/kg	–
COc1cccc2c1C(=O)c1c(O)c3c(c(O)c1C2=O)C[C@@](O)(C(=O)CO)C[C@@H]3O[C@H]1C[C@H](N)[C@H](O)[C@H](C)O1 [DOXORUBICIN]	2.9	1	0%	18 mg/kg	–
CCN(CC)CCNc1ccc(CN)c2sc3ccccc3c(=O)c12	>4	4	0%	270 mg/kg	–
CCN(CC)CCNc1ccc(CN(C)S(C)(=O)=O)c2sc3ccccc3c(=O)c12	2.5	1	0%	304 mg/kg	–
CCN(CC)CCNc1ccc(CNC(=O)C(F)(F)F)c2sc3ccccc3c(=O)c12	1.5	0	21%	1171 mg/kg	–
CCN(CC)CCNc1ccc(CO)c2sc3ccccc3c(=O)c12 [HYCANTHONE]	3.4	0	4%	290 mg/kg	–
CCN(CC)CCNc1ccc(CNC)c2sc3ccc(OC)cc3c(=O)c12	5.1	1	0%	880 mg/kg	–
CCN(CC)CCNc1ccc(CNC(=O)OC)c2sc3ccccc3c(=O)c12	8.8	2	0%	248 mg/kg	–
CCN(CC)CCNc1ccc(CNC)c2sc3ccc(O)cc3c(=O)c12	4.6	0	0%	60 mg/kg	–
CCN(CC)CCNc1ccc(CNC=O)c2sc3ccccc3c(=O)c12	3	1	0%	576 mg/kg	–
CCN(CC)CCNc1ccc(CNC(C)=O)c2sc3ccccc3c(=O)c12	2.7	3	0%	540 mg/kg	–
CCN(CC)CCNc1ccc(CNC(=O)OC)c2sc3ccc(OC)cc3c(=O)c12	>4.5	5	0%	240 mg/kg	–
CCN(CC)CCNc1ccc(CN(C)C)c2sc3ccccc3c(=O)c12	0.9	0	23%	544 mg/kg	–
CCN(CC)CCNc1ccc(CNC(=O)c2ccccc2)c2sc3ccccc3c(=O)c12	0.5	1	26%	252 mg/kg	–
CCOP(=O)(NCc1ccc(NCCN(CC)CC)c2c(=O)c3ccccc3sc12)OCC	<0.5	0	36%	1298 mg/kg	–
CCN(CC)CCNc1ccc(CNS(=O)(=O)c2ccccc2)c2sc3ccccc3c(=O)c12	2.9	1	0%	840 mg/kg	–
CCN(CC)CCNc1ccc(CNS(C)(=O)=O)c2sc3ccc(OC)cc3c(=O)c12	6.5	1	0%	248 mg/kg	–
CCN(CC)CCNc1ccc(CNS(C)(=O)=O)c2sc3ccccc3c(=O)c12	2	3	0%	–	124 mg/kg
